≈ marks a conversion by molar mass, not a printed value. Like-named read-outs stand apart in the source and are kept apart here.
Key:
A. baumannii ATCC 17978 = assay: General antimicrobial activity assay (CLSI broth microdilution); format: cell-based, Acinetobacter baumannii
Description: (§1) Whole-cell antimicrobial activity was determined by broth microdilution using the Clinical and Laboratory Standards Institute (CLSI) recommended procedure, Document M7-A7, “Methods for Dilution Susceptibility Tests for Bacteria that Grow Aerobically”.

P. aeruginosa PA01 = assay: General antimicrobial activity assay (CLSI broth microdilution); format: cell-based, Pseudomonas aeruginosa
Description: as §1

E. coli K12 tolC::Tn10 = assay: as above; format: cell-based, Escherichia coli
Description: as §1

E. coli K12 = assay: as above; format: cell-based, Escherichia coli
Description: as §1

[1] = tested on: M. tuberculosis standard strain Mtb H37Rv; assay: MIC determination against mycobacteria (resazurin, Middlebrook 7H9); format: cell-based, Mycobacterium tuberculosis
[2] = tested on: M. tuberculosis clinical isolates; assay: MIC against clinical strains (BACTEC MGIT 960 System); format: cell-based; details: Mycobacterium tuberculosis
[3] = HepG2 Tox50 (A) / Mtb H37Rv MIC (B)
[4] = Mycobacterium tuberculosis, H37RV, read-out: Mtb H37Rv MIC (B)
[5] = Mycobacterium tuberculosis, H37RV; read-out: Mtb H37Rv MIC (B)

Row | Compound | MIC: A. baumannii ATCC 17978 (A. baumannii ATCC 17978) [µg/mL] | Selectivity Index (A/B) (HepG2 cells; [3]) | HepG2 cell 48 h Tox50 (A) (HepG2 cells; human, 48 h) [µM] | MIC: P. aeruginosa PA01 (P. aeruginosa PA01) [µg/mL] | MIC: E. coli K12 tolC::Tn10 (E. coli K12 tolC::Tn10) [µg/mL] | MIC: E. coli K12 (E. coli K12) [µg/mL] | MIC [1, 4] [µM] | HepG2 cell 48 h Tox50 (A) (HepG2 cells; 48 h) [µM] | further results
1 | NCC1OB2OCCOc3cccc1c32 (racemic) [Example C2-H, reference compound] | 2 (≈ 9.76 µM) | >26 | >50 | 2 (≈ 9.76 µM) | 4 (≈ 19.5 µM) | 2 (≈ 9.76 µM) | 1.88 (≈ 0.385 µg/mL) | – | –
2 | C[C@@]1(CO)COc2ccc(Cl)c3c2B(OC3CN)O1 (single isomer, unassigned) [Example 14, ((2S, 8R or 2R, 8S)-2-(aminomethyl)-3-chloro-8-methyl-7,8-dihydro-2H-1,6,9-trioxa-9a-borabenzo[cd]azulen-8-yl)methanol] | – | >4 | >50 | – | – | – | 1.25 (≈ 0.354 µg/mL) | – | –
3 | Cl.NCC1OB2OCCOc3ccc(Br)c1c32 (stereo not drawn) [Example 1, 3-bromo-7,8-dihydro-2H-1,6,9-trioxa-9a-borabenzo[cd]azulen-2-yl)methanamine Hydrochloride] | – | – | – | – | – | – | 0.18 | – | –
4 | Cl.NCC1OB2OCCOc3ccc(Br)c1c32 (stereo not drawn) [Example 1] | >64 | – | – | >64 | >64 | >64 | – | >50 | Selectivity Index (A/B) (HepG2 cells; hydrochloride): >277
5 | Cl.NCC1OB2OCCOc3ccc(Cl)c1c32 (stereo not drawn) [Example 3, 3-chloro-7,8-dihydro-2H-1,6,9-trioxa-9a-borabenzo[cd]azulen-2-yl)methanamine hydrochloride] | – | – | – | – | – | – | 0.47 | – | –
6 | Cl.NCC1OB2OCCOc3ccc(Cl)c1c32 (stereo not drawn) [Example 3] | >64 | – | – | >64 | >64 | >64 | – | >50 | Selectivity Index (A/B) (HepG2 cells; hydrochloride): >106
7 | Cl.NCC1OB2OCCOc3ccc(F)c1c32 (stereo not drawn) [Example 5, (3-fluoro-7,8-dihydro-2H-1,6,9-trioxa-9a-borabenzo[cd]azulen-2-yl)methanamine hydrochloride)] | – | – | – | – | – | – | 0.6 | – | –
8 | Cl.NCC1OB2OCCOc3ccc(F)c1c32 (stereo not drawn) [Example 5] | >64 | – | – | 4 | 64 | 32 | – | – | –
9 | Cl.NC[C@H]1OB2OCCOc3ccc(I)c1c32 [Example 6, (S)-(3-iodo-7,8-dihydro-2H-1,6,9-trioxa-9a-borabenzo[cd]azulen-2-yl)methanamine hydrochloride] | – | – | – | – | – | – | 0.3 | – | –
10 | CC1COc2ccc(Cl)c3c2B(O1)OC3CN.Cl (stereo not drawn) [Example 7, (3-chloro-8-methyl-7,8-dihydro-2H-1,6,9-trioxa-9a-borabenzo[cd]azulen-2-yl)methanamine Hydrochloride] | >64 | – | – | >64 | >64 | >64 | 0.2 | >50 | Selectivity Index (A/B) (HepG2 cells): >250
11 | CC1COc2ccc(Br)c3c2B(O1)OC3CN.Cl (stereo not drawn) [Example 8, (3-bromo-8-methyl-7,8-dihydro-2H-1,6,9-trioxa-9a-borabenzo[cd]azulen-2-yl)methanamine hydrochloride] | >64 | – | – | >64 | >64 | >64 | 0.3 | >50 | Selectivity Index (A/B) (HepG2 cells): >167
12 | CC1(C)COc2ccc(Br)c3c2B(OC3CN)O1.Cl (stereo not drawn) [Example 9, (3-bromo-8,8-dimethyl-7,8-dihydro-2H-1,6,9-trioxa-9a-borabenzo[cd]azulen-2-yl)methanamine hydrochloride] | >64 | – | – | >64 | >64 | >64 | 0.3 | >50 | Selectivity Index (A/B) (HepG2 cells; hydrochloride): >167
13 | CC1(C)COc2ccc(Br)c3c2B(O[C@@H]3CN)O1.Cl [Example 10, (S)-(3-bromo-8,8-dimethyl-7,8-dihydro-2H-1,6,9-trioxa-9a-borabenzo[cd]azulen-2-yl)methanamine Hydrochloride] | >64 | – | – | >64 | >64 | >64 | 0.16 | – | –
14 | CC1(C)COc2ccc(Cl)c3c2B(OC3CN)O1.Cl (stereo not drawn) [Example 11, (3-chloro-8,8-di methyl-7,8-dihydro-2H-1,6,9-trioxa-9a-borabenzo[cd]azulen-2-yl)methanamine Hydrochloride] | >64 | – | – | >64 | >64 | >64 | 0.27 | >50 | Selectivity Index (A/B) (HepG2 cells; hydrochloride): >185
15 | CC1(C)COc2ccc(Cl)c3c2B(O[C@@H]3CN)O1.Cl [Example 12, (S)-(3-chloro-8,8-dimethyl-7,8-dihydro-2H-1,6,9-trioxa-9a-borabenzo[cd]azulen-2-yl)methanamine Hydrochloride] | >64 | – | – | >64 | >64 | >64 | 0.08 | – | –
16 | Cl.NC[C@H]1OB2O[C@H](CO)COc3ccc(F)c1c32 [Example 13, ((2S,8R)-2-(aminomethyl)-3-fluoro-7,8-dihydro-2H-1,6,9-trioxa-9a-borabenzo[cd]azulen-8-yl)methanol Hydrochloride] | – | – | – | – | – | – | 0.55 | >50 | Selectivity Index (A/B) (HepG2 cells): >10
17 | C[C@]1(CO)COc2ccc(Cl)c3c2B(OC3CN)O1 (stereo partly drawn) [Example 15, ((2S, 8S, or 2R, 8R)-2-(aminomethyl)-3-chloro-8-methyl-7,8-dihydro-2H-1,6,9-trioxa-9a-borabenzo[cd]azulen-8-yl)methanol] | – | >50 | >50 | – | – | – | 0.93 (≈ 0.264 µg/mL) | – | –
18 | C[C@@]1(CO)COc2ccc(Br)c3c2B(OC3CN)O1 (stereo partly drawn) [Example 16, ((2S, 8R, or 2R, 8S)-2-(aminomethyl)-3-bromo-8-methyl-7,8-dihydro-2H-1,6,9-trioxa-9a-borabenzo[cd]azulen-8-yl)methanol] | – | >40 | >50 | – | – | – | 1.25 (≈ 0.41 µg/mL) | – | –
19 | c1cc2c3c(c1)OCCOB3OC2 [Example C1-H, reference compound] | – | – | – | – | – | – | – | – | MIC [1, 5]: 31 µM (≈ 5.46 µg/mL)
20 | NCCOc1cccc2c1B(O)OC2 [Example C3-H, reference compound] | – | >0.8 | – | – | – | – | – | >50 | MIC [1, 5]: 62 µM (≈ 12 µg/mL)
21 | CCOc1cccc2c1B(O)O[C@@H]2CN [Example C5-H, reference compound] | – | 3 | – | – | – | – | – | 1.8 | MIC [1, 5]: 0.6 µM (≈ 0.124 µg/mL)
22 | CC1COc2c(Cl)cc(Cl)c3c2B(O1)OC3CN (stereo not drawn) [Example C7-Cl2, reference compound] | – | >20 | >50 | – | – | – | 2.5 (≈ 0.72 µg/mL) | – | –
23 | CC1(C)COc2c(Cl)ccc3c2B(OC3CN)O1 (stereo not drawn) [Example C8-Cl, reference compound] | – | 10 | >50 | – | – | – | > 5 | – | –
24 | CC1(C)COB2OC(CN)c3c(Cl)ccc(c32)O1 (stereo not drawn) [Example C9-Cl, reference compound] | – | >10 | >50 | – | – | – | 5 (≈ 1.34 µg/mL) | – | –
25 | CC1(C)COB2OC(CN)c3cccc(c32)O1 (stereo not drawn) [Example C10-H, reference compound] | – | 10 | >50 | – | – | – | > 5 | – | –
26 | CC1COc2cccc3c2B(O1)OC3CN (stereo not drawn) [Example C11-H, reference compound] | 4 (≈ 18.3 µM) | >32 | > 50 | 2 (≈ 9.13 µM) | 2 (≈ 9.13 µM) | 2 (≈ 9.13 µM) | 1.56 (≈ 0.342 µg/mL) | – | HepG2 cell 48 h, figure in brackets beside Tox50 (HepG2 cells; 48 h, printed as >50 (40%)): 40%
27 | CC1(C)COc2cccc3c2B(OC3CN)O1 (stereo not drawn) [Example C12-H, reference compound] | 4 (≈ 17.2 µM) | >4.9 | 24.5 | 16 (≈ 68.6 µM) | 2 (≈ 8.58 µM) | 4 (≈ 17.2 µM) | > 5 | – | –
28 | NC[C@H]1OB2OCCOc3c(Cl)cc(Cl)c1c32 [Example C14-Cl2, reference compound] | – | >10 | >50 | – | – | – | > 5 | – | –
29 | NC[C@H]1OB2OCCOc3ccc(Cl)c1c32 [Example G4-Cl] | – | – | – | – | – | – | – | – | MIC ([2]; for all of but 1 of the 40 clinical isolate strains tested): < 1 µM; MIC ([2]; read-out: measured MIC (breakdown), for 1 strain of 97 clinical isolates): ≤ 0.2 µM; MIC ([2]; read-out: measured MIC (breakdown), for 3 strains of 97 clinical isolates): 0.31 µM (≈ 0.0742 µg/mL); MIC ([2]; read-out: measured MIC (breakdown), for 8 strains of 97 clinical isolates (first group)): 0.04 µM (≈ 0.00958 µg/mL); MIC ([2]; read-out: measured MIC (breakdown), for 8 strains of 97 clinical isolates (second group)): 0.16 µM (≈ 0.0383 µg/mL); MIC ([2]; read-out: measured MIC (breakdown), for 76 strains of 97 clinical isolates): 0.08 µM (≈ 0.0192 µg/mL)
